Laboratory results published in ChEMBL document CHEMBL5543108, “Structure-based design and synthesis of BML284 derivatives: A novel class of colchicine-site noncovalent tubulin degradation agents” (Eur J Med Chem, 2024).

Legend:
A2780S [1] = assay: Induction of cell cycle arrest in human A2780S cells assessed as accumulation of cells at G2/M phase at 300 nM measured after 24 hrs by propidium iodide staining based analysis (reference value: 18.43%); format: functional
A2780S [2] = assay: Induction of cell cycle arrest in human A2780S cells assessed as accumulation of cells at S phase at 30 nM measured after 24 hrs by propidium iodide staining based analysis (reference value: 29.85%); format: functional
A2780S [3] = assay: Induction of cell cycle arrest in human A2780S cells assessed as accumulation of cells at G0/G1 phase at 30 nM measured after 24 hrs by propidium iodide staining based analysis (reference value: 51.71%); format: functional
[4] = Clearance in male Sprague-Dawley rat at 10 mg/kg, po; format: ADME, organism-based; conditions: in vivo
[5] = AUC (0 to t) in male Sprague-Dawley rat at 10 mg/kg, iv; format: ADME, organism-based; conditions: in vivo
A2780/Taxol [6] = assay: Induction of cell cycle arrest in human A2780T cells assessed as accumulation of cells at G2/M phase at 30 nM measured after 24 hrs by propidium iodide staining based analysis (reference value: 24.13%); format: functional
[7] = Toxicity in mouse xenografted with human A2780S cells assessed as side effects at 10 to 30 mg/kg, iv measured upto 12 days; format: organism-based; conditions: in vivo, 288 h, dose 10-30 mg/kg, time < 12 day
A2780/Taxol [8] = assay: Induction of apoptosis in human A2780T cells assessed as total number of late apoptotic cells at 30 nM measured after 48 hrs by Annexin-V-FITC and PI staining based flow cytometry analysis (reference value: 3.42%); format: functional
A2780/Taxol [9] = assay: Induction of cell cycle arrest in human A2780T cells assessed as accumulation of cells at S phase at 3 nM measured after 24 hrs by propidium iodide staining based analysis (reference value: 29.73%); format: functional
A2780S [10] = assay: Induction of apoptosis in human A2780S cells assessed as total number of late apoptotic cells at 300 nM measured after 48 hrs by Annexin-V-FITC and PI staining based flow cytometry analysis (reference value: 3.42%); format: functional
HCT-116 = assay: cells; conditions: Homo sapiens, HCT-116, 72 h
Description: Antiproliferative activity against human HCT-116 cells assessed as reduction in cell viability measured after 72 hrs

Tubulin (Homo sapiens) = Tubulin (Homo sapiens) (UniProt P68371+Q9H4B7+P0DPH7+P68366+Q13509+Q71U36+P04350+Q3ZCM7+P07437+P68363+Q9BQE3+Q6PEY2+Q13885+Q9BVA1+Q9BUF5); assay: Induction of tubulin degradation in human HeLa cells measured after 24 hrs by immunoblot analysis; format: cell-based; conditions: dose <= 50.0 µM
A2780/Taxol [11] = assay: Antiproliferative activity against human A2780T cells assessed as reduction in cell viability measured after 72 hrs; format: functional, cell-based
A2780S [12] = assay: Induction of apoptosis in human A2780S cells assessed as total number of late apoptotic cells at 100 nM measured after 48 hrs by Annexin-V-FITC and PI staining based flow cytometry analysis (reference value: 3.42%); format: functional
HUVEC [13] = assay: Antivascular activity against human HUVEC cells assessed as inhibition of capillary tube formation at 40 nM incubated for 6 hrs by microscopy based analysis relative to control; format: functional; set-up: scale not given: the % may be the effect or the level left
A2780/Taxol [14] = assay: Induction of apoptosis in human A2780T cells assessed as total number of late apoptotic cells at 100 nM measured after 48 hrs by Annexin-V-FITC and PI staining based flow cytometry analysis (reference value: 3.42%); format: functional
[15] = Volume of distribution at steady state in male Sprague-Dawley rat at 10 mg/kg, iv; format: ADME, organism-based; conditions: in vivo, read-out: Vdss
[16] = Bioavailability in male Sprague-Dawley rat at 10 mg/kg, iv; format: ADME, organism-based; conditions: in vivo
HUVEC [17] = assay: Antivascular activity against human HUVEC cells assessed as inhibition of capillary tube formation incubated for 24 hrs by microscopy based analysis; format: functional, cell-based
[18] = Selectivity ratio of IC50 for human MCF7ADR cells to IC50 for human MCF7; format: toxicity
A2780S [19] = assay: Antitumor activity against human A2780S cells xenografted in mouse model assessed as tumor growth inhibition at 10 mg/kg, iv administered every two days for 12 days relative to control; format: functional; conditions: 288 h, time 12 day, read-out: TGI
A2780S [20] = assay: Antitumor activity against human A2780S cells xenografted in mouse model assessed as tumor growth inhibition at 30 mg/kg, iv administered every two days for 12 days relative to control; format: functional; conditions: 288 h, time 12 day, read-out: TGI
[21] = Cmax in male Sprague-Dawley rat at 10 mg/kg, po; format: ADME, organism-based; conditions: in vivo
A2780/Taxol [22] = assay: Antitumor activity against human A2780T cells xenografted in mouse model assessed as tumor growth inhibition at 10 mg/kg, iv administered every two days for 18 days relative to control; format: functional; conditions: 432 h, time 18 day, read-out: TGI
[23] = Selectivity ratio of IC50 for human A2780T cells to IC50 for human A2780S
A2780S [24] = assay: Induction of cell cycle arrest in human A2780S cells assessed as accumulation of cells at G0/G1 phase at 3 nM measured after 24 hrs by propidium iodide staining based analysis (reference value: 51.71%); format: functional
A2780/Taxol [25] = assay: Antitumor activity against human A2780T cells xenografted in mouse model assessed as tumor growth inhibition at 20 mg/kg, iv administered every two days for 18 days relative to control; format: functional; conditions: 432 h, time 18 day, read-out: TGI
A2780/Taxol [26] = assay: Induction of cell cycle arrest in human A2780T cells assessed as accumulation of cells at G0/G1 phase at 10 nM measured after 24 hrs by propidium iodide staining based analysis (reference value: 46.141%); format: functional
A2780/Taxol [27] = assay: Induction of cell cycle arrest in human A2780T cells assessed as accumulation of cells at G0/G1 phase at 3 nM measured after 24 hrs by propidium iodide staining based analysis (reference value: 46.141%); format: functional
HeLa = assay: Antiproliferative activity against human HeLa cells assessed as reduction in cell viability measured after 72 hrs; format: functional, cell-based
A2780S [28] = assay: Antiproliferative activity against human A2780S cells assessed as reduction in cell viability measured after 72 hrs; format: functional, cell-based
A2780S [29] = assay: Induction of cell cycle arrest in human A2780S cells assessed as accumulation of cells at S phase at 3 nM measured after 24 hrs by propidium iodide staining based analysis (reference value: 29.85%); format: functional
A2780S [30] = assay: Induction of cell cycle arrest in human A2780S cells assessed as accumulation of cells at G2/M phase at 10 nM measured after 24 hrs by propidium iodide staining based analysis (reference value: 18.43%); format: functional
A2780/Taxol [31] = assay: Antitumor activity against human A2780T cells xenografted in mouse model assessed as tumor growth inhibition at 40 mg/kg, iv administered every two days for 18 days relative to control; format: functional; conditions: 432 h, time 18 day, read-out: TGI
A2780/Taxol [32] = assay: Induction of cell cycle arrest in human A2780T cells assessed as accumulation of cells at G2/M phase at 100 nM measured after 24 hrs by propidium iodide staining based analysis (reference value: 24.13%); format: functional
A2780/Taxol [33] = assay: Induction of cell cycle arrest in human A2780T cells assessed as accumulation of cells at G2/M phase at 3 nM measured after 24 hrs by propidium iodide staining based analysis (reference value: 24.13%); format: functional

- CL/F [4]: 314 mL/min/kg
- AUC(0-t) [5]: 4270 ng·h/mL
- IC50 (HCT-116): 30 nM
- Activity (Tubulin (Homo sapiens)): Dose-Dependent Effect
- IC50 (A2780/Taxol [11]): 16 nM
- Vd [15]: 7.43 L/kg
- bioavailability [16]: 10.5%
- Cmax [21]: 77.9 ng/mL
- IC50 (HeLa): 50 nM
- IC50 (A2780S [28]): 18 nM
SMILES: COc1cccc(-c2cc(NCc3ccc4[nH]ccc4c3)nc(N)n2)c1
- Activity (A2780S [1]): 82.11%
- Activity (A2780S [2]): 28.02%
- Activity (A2780S [3]): 48.16%
- Activity (A2780/Taxol [6]): 20%
- Activity [7]: Toxic
- Activity (A2780/Taxol [8]): 5.29%
- Activity (A2780/Taxol [9]): 29.77%
- Activity (A2780S [10]): 15.57%
- Activity (A2780S [12]): 14.43%
- Activity (HUVEC [13]): 100%
- Activity (A2780/Taxol [14]): 14.43%
- IC50 (HUVEC [17]): 623 nM
- Ratio IC50 [18]: 1.6
- inhibition in vivo at 10 mg/kg (A2780S [19]): 45.3%
- inhibition in vivo at 30 mg/kg (A2780S [20]): 79.4%
- inhibition in vivo at 10 mg/kg (A2780/Taxol [22]): 52.2%
- Ratio IC50 [23]: 0.89
- Activity (A2780S [24]): 47.48%
- inhibition in vivo at 20 mg/kg (A2780/Taxol [25]): 68.2%
- Activity (A2780/Taxol [26]): 46.48%
- Activity (A2780/Taxol [27]): 50.87%
- Activity (A2780S [29]): 29.35%
- Activity (A2780S [30]): 22.16%
- inhibition in vivo at 40 mg/kg (A2780/Taxol [31]): 82%
- Activity (A2780/Taxol [32]): 83.16%
- Activity (A2780/Taxol [33]): 19.35%
